We go through 2 molecules from patent US20180193332A1, “LOW-TEMPERATURE STABLE OPIOID ANTAGONIST SOLUTIONS” (priority 2017, published 2018).

Series [1] in a line: Naloxone HCl precipitation after freeze/thaw. The class given is physicochemical. From the text:
However, the solution remained opaque when thawed, and precipitation was evident. […] The precipitate could not be re-dissolved in solution following sonication. […]

A short description of series [2]: Naloxone stability (visual precipitation) during storage at 4° C. The class given is physicochemical.
The mark [3] stands for this setting: per 100 mL: EDTA-Na2 0 mg, PG 5% w/v.
Where [4] appears, read: per 100 mL: EDTA-Na2 0 mg, PG 10% w/v.
Where [5] appears, read: per 100 mL: EDTA-Na2 0 mg, PG 20% w/v.
[6] abbreviates: per 100 mL: EDTA-Na2 100 mg, PG 5% w/v.
[7] abbreviates: per 100 mL: EDTA-Na2 100 mg, PG 10% w/v.
[8] abbreviates: per 100 mL: EDTA-Na2 100 mg, PG 20% w/v.

Where a name gives a salt, the structure may show the parent alone.

In the case of `C=CCN1CC[C@]23c4c5ccc(O)c4O[C@H]2C(=O)CC[C@@]3(O)[C@H]1C5` [naloxone HCl], the “Naloxone precipitation?” value in series [1] (per mL: NaCl 3.7 mg, EDTA-Na2 2.0 mg, PG 20% w/v, EtOH 0% w/v, 1 freeze/thaw cycle) is recorded as “yes”; in series [1] (per mL: NaCl 7.4 mg, EDTA-Na2 0.0 mg, PG 5% w/v, EtOH 0% w/v, 3 freeze/thaw cycles), “No”; in series [1] (per mL: NaCl 7.4 mg, EDTA-Na2 0.0 mg, PG 10% w/v, EtOH 0% w/v, 3 freeze/thaw cycles) it was “no”; in series [1] (per mL: NaCl 7.4 mg, EDTA-Na2 0.0 mg, PG 20% w/v, EtOH 0% w/v, 3 freeze/thaw cycles), “no”; in series [1] (per mL: NaCl 7.4 mg, EDTA-Na2 1.0 mg, PG 5% w/v, EtOH 0% w/v, 3 freeze/thaw cycles), “no”; in series [1] (per mL: NaCl 7.4 mg, EDTA-Na2 1.0 mg, PG 10% w/v, EtOH 0% w/v, 3 freeze/thaw cycles), “no”. Besides, the “Naloxone precipitation?” value in series [1] (per mL: NaCl 7.4 mg, EDTA-Na2 1.0 mg, PG 20% w/v, EtOH 0% w/v, 4 freeze/thaw cycles) is reported as “no”; in series [1] (per mL: NaCl 7.4 mg, EDTA-Na2 1.0 mg, PG 20% w/v, EtOH 0% w/v, 7 freeze/thaw cycles), “no”; in series [1] (per mL: NaCl 7.4 mg, EDTA-Na2 2.0 mg, PG 10% w/v, EtOH 0% w/v, 1 freeze/thaw cycle), “yes”; in series [1] (per mL: NaCl 7.4 mg, EDTA-Na2 2.0 mg, PG 20% w/v, EtOH 0% w/v, 1 freeze/thaw cycle), “yes”; in series [1] (per mL: NaCl 7.4 mg, EDTA-Na2 2.0 mg, PG 20% w/v, EtOH 2% w/v, 1 freeze/thaw cycle), “yes”; in series [1] (per mL: NaCl 7.4 mg, EDTA-Na2 2.0 mg, PG 20% w/v, EtOH 5% w/v, 1 freeze/thaw cycle), “yes”. Also, the “Naloxone precipitation?” value was “yes” in series [1] (per mL: NaCl 7.4 mg, EDTA-Na2 2.0 mg, PG 20% w/v, EtOH 10% w/v, 1 freeze/thaw cycle) and “yes” in series [1] (per mL: NaCl 7.4 mg, EDTA-Na2 2.0 mg, PG 30% w/v, EtOH 0% w/v, 1 freeze/thaw cycle).

On to `C=CCN1CC[C@]23c4c5ccc(O)c4O[C@H]2C(=O)CC[C@@]3(O)[C@H]1C5` [Naloxone], for which the “Observed naloxone precipitation 24 days” value in series [2] (setting [3]) is “No”; in series [2] (setting [4]), “No”; in series [2] (setting [5]), “No”; in series [2] (setting [6]), “No”; in series [2] (setting [7]) it was “No”; in series [2] (setting [8]) it was “No and Slight”. Moreover, the “Observed naloxone precipitation 35 days” value is “No” in series [2] (setting [3]); “No” in series [2] (setting [4]); “No” in series [2] (setting [5]); “No” in series [2] (setting [6]); “No” in series [2] (setting [7]); “No and Yes” in series [2] (setting [8]). Further, the “Observed naloxone precipitation 53 days” value in series [2] (setting [3]) was “No”; in series [2] (setting [4]), “No”; in series [2] (setting [5]), “No”; in series [2] (setting [6]) it was “No”; in series [2] (setting [7]) it was “No and Slight”; in series [2] (setting [8]), “No and Yes”.
